Measurements as given in patent publication US20260308102A1, “18F-FLUORINATED FATTY ACIDS AND USES THEREOF” (Ratio Therapeutics, Inc., priority 2022, published 2026).
“Also recorded” adds a separate entry of the source.

What was measured:
[1] = Static μPET/CT imaging at 45 min p.i. of short chain 18F-fatty acids and esters (Example 1)
Method: FIG. 1 is a series of Static Sagital and Coronal Maximum Intensity Projections (MIPs) μPET/CT images obtained at 45 minutes p.i. for the compounds studied (excluding palmitate) in normally fed animals. Imaging with ethyl-protected intermediates are also shown (e-).
Wild type immunocompetent animals were used, both for imaging and biodistribution experiments.
The activity was administered to the awake animals (n=2) via tail-vein injection (9.25-18.5 MBq, or 250-500 μCi) and placed back into their cages. At 35 minutes post injection (p.i.), animals were place in an acrylic enclosure under 4% isoflurane anesthesia in O2 for initial knockdown, then reduced to 2.5%. Once asleep, animals were placed in the imaging holder and a 5-minute CT was followed by a 15-minute static PET (approx. 45-60 min p.i., or 10-15 min after completion of anesthesia). As before, animals were allowed to recover from the anesthesia before returning to the holding facility for decay. When warranted, animals were studied with regular feeding and fasting for 6-12 hours to evaluate any difference in biodistribution.

[2] = cancer patients; cited from earlier work
[3] = Static μPET/CT imaging at 45 min p.i. of medium and long chain 18F-fatty acids (Example 2); settings: for brain uptake: includes earlier short chain data; for defluorination (bone uptake) / metabolic rate: static PET
Method: All animal experiments were approved by the Albert Einstein College of Medicine IACUC. Wild type immunocompetent animals were used for imaging. Feeding and water conditions were maintained throughout the study. Animals were never fasted.
The agent was administered to awake animals via tail-vein injection (9.25-18.5 MBq, or 250-500 μCi, n=2) and placed back into their cages. At 40 minutes post injection (henceforth p.i.), animals were place in an acrylic enclosure under 4% isoflurane anesthesia in O2 for initial knockdown, then reduced to 2.5%. Once asleep, animals were placed in the imaging holder and a 5-minute CT followed by a 15-minute static PET were performed (Approx. 45-60 min p.i.). As before, animals were allowed to recover from the anesthesia before returning to the holding facility for radiotracer decay. Images were analyzed by drawing regions of interest (ROIs) and quantifying the amount of tracer present as percent of injected activity per cubic centimeter (% IA/cc). Blood, urinary bladder and gut activity were determined by computer drawing of 2 mm diameter ROI spheres in the left cardiac ventricle, the urinary bladder and the areas of specific gut uptake, respectively. Brain, liver and kidney ROIs were drawn CT-aided and the radioactive contents were later quantified.

[4] = test system: MCT1; settings: in vitro, Van Hée et al.; cited from earlier work
[5] = test system: monocarboxylate transporter (MCT); experiment: PET imaging of 2-[^18F]FP with lactate displacement and MCT inhibition by AZD-3965 co-injection; assay type: in vivo, wild type mice
Description: FIG. 2 is a graph depicting PET-derived quantification of brain and pancreatic (“gut”) uptake of 2-[^18F]FP and 2-(L)-[^18F]FP under different conditions (n=2).
FIG. 12 is a collection of dynamic μPET/CT images that compare different imaging conditions including blocking with the MCT1 blocker AZD3965.
Further experiments to test the possibility of using 2-[^18F]FP and 2-(L)-[^18F]FP as a lactate surrogate, including co-injection with (L)Lactate, (D)Lactate, and AZD-3965 to produce displacement and monocarboxylate transporter (MCT) inhibition (respectively) were conducted and results can be observed in FIG. 2. The corresponding μPET/CT images can be found in the FIG. 12.
The unique characteristics of 2-[^18F]FP open many possibilities to study cancers and brain/CNS function and metabolism. As with 2-[^18F]FB the enantiomers have not been separated for either production or quality control. However, parametric production of 2-(L)-[^18F]FP was possible since the ethyl(2R)-2-{[(4-methylphenyl) sulfonyl]oxy}propanoate is commercially available. This compound's ability to resemble (L)-lactate has been contested in vitro, with confounding in vivo results. For comparison we co-injected 2-[^18F]FP separately with 0.5 and 5 mg/kg (L) and (D) sodium lactate (an increase of 5 and 50% respectively in homeostatic lactate circulation), and 5 mg/Kg of AZD-3965, an monocarboxylate transporter (MCT) 1 and 2 inhibitor (Ki(MCT1)=3 nM, Ki(MCT2)=20 nM) in the same animal model.

[6] = Stability in HCl and saline solution; assay type: physicochemical; settings: for stability in HCl: HCl lower than 3 M
[7] = biological target: MCT1; settings: role: inhibitor; cited from earlier work
[8] = biological target: MCT2; settings: role: inhibitor; cited from earlier work
[9] = Dynamic PET imaging (60 min) of butyrate analogues (Example 1); assay type: in vivo, wild type mice; settings: for in vivo behavior / biodistribution, comparison of isomers: 4-[^18F]FB vs 2-[^18F]FB
Method: FIG. 10 is a series of dynamic μPET/CT images depicting the biodistribution of 2-[^18F]FB and 4-[^18F]FB in wild type mice. Stable biodistribution was achieved after 45 minutes p.i.
Animals were anesthetized under 3% isoflurane in 02. […] Animals were allowed to recover from anesthesia and were carefully observed before moving them back to the holding facility for decay. Data was reconstructed as five 12-minute frames and as twelve 5-minute frames for analysis.

[10] = co-injection with AZD-3965, 5 mg/Kg

CCOC(=O)CCC[18F] [e-4-[^18F]FB, Ethyl 4-[^18F]Fluorobutyrate]
blood circulation time ([1]; static PET, 45 min p.i.): slightly longer blood circulation | general biodistribution ([1]; static PET, 45 min p.i.): almost identical biodistribution

CCOC(=O)C([18F])CC (stereo not drawn) [e-2-[^18F]FB, Ethyl 2-[^18F]Fluorobutyrate]
blood circulation time ([1]; static PET, 45 min p.i.): slightly longer blood circulation | general biodistribution ([1]; static PET, 45 min p.i.): almost identical biodistribution

CC(=O)O [[^11C]Acetate]
uptake in comparison with [^18F]FDG [2]: mutually exclusive

CC([18F])C(=O)O (racemic) [2-[^18F]FP, 2-[^18F]Fluoropropionate]
brain uptake ([3]; 45 min p.i.): High brain uptake | MCT1-dependent accumulation [4]: does not accumulate in a MCT1-dependent manner | apparent stability in vivo ([1]; no metabolite analysis performed): seems to be stable in vivo in the studied period; also recorded: high apparent probe stability in vivo | blood circulation time ([1]; static PET, 45 min p.i.): decreased circulation times | defluorination in vivo ([1]; static PET, 45 min p.i.): only minor defluorination was observed; also recorded: no defluorination was observed | brain/CNS uptake ([1]; static PET, 45 min p.i., fed): maintained CNS uptake; also recorded: specific uptake in brain and the central nervous system; also recorded: marked brain uptake | abdominal uptake under different imaging conditions ([5]; different imaging conditions (fasting, lactate)): remained stable and not affected by the different imaging conditions | average brain uptake, fasting or co-injection with (L)-lactate ([5]; fasting, co-injection with 5 mg/kg (L)-lactate, differences not significant): slight increase in average brain uptake

CCOC(=O)CC[18F] [e-3-[^18F]FP, Ethyl 3-[^18F]Fluoropropionate]
stability in HCl [6]: not stable | stability in saline solution [6]: decomposed immediately

CCCCCCC([18F])C(=O)O (racemic) [2-[^18F]FCy, 2-Fluorocaprylate]
specific abdominal uptake ([3]; 45 min p.i.): not found | brain uptake ([3]; 45 min p.i.): significantly reduced | defluorination (bone uptake) ([3]; 45 min p.i.): Almost no defluorination

O=C(O)CCCC[18F] [5-[^18F]FV, 5-Fluorovalerate]
metabolic rate ([3]; 45 min p.i.): much faster metabolic rate than that of 6-[^18F]FC and 8-[^18F]FCy

O=C(O)CCCCCC[18F] [7-[^18F]FE, 7-Fluoroenanthate]
metabolic rate ([3]; 45 min p.i.): much faster metabolic rate than that of 6-[^18F]FC and 8-[^18F]FCy

CCCCCCCCCCCCCCC([18F])C(=O)O (racemic) [2-[^18F]FPalm, 2-[^18F]Fluorohexadecanoic acid]
blood content ([3]; 45 min p.i.): reduced | liver uptake ([3]; 45 min p.i.): predominant liver uptake | specific abdominal uptake ([3]; 45 min p.i.): not found | brain uptake ([3]; 45 min p.i.): significantly reduced | defluorination (bone uptake) ([3]; 45 min p.i.): slightly higher defluorination rate

O=C(O)CCCCCCCCCCCCCCC[18F] [16-[^18F]FPalm, 16-[^18F]Fluorohexadecanoic acid]
bright spot in liver / autopsy finding ([3]; one animal): a bright spot was found in one the animal's liver, but later autopsy did not revealed any interesting finding | defluorination (bone uptake) ([3]; 45 min p.i.): faster for the 16-substituted compound, although much slower in contrast to its MCFA n-substituted congeners

CCOC(=O)CC(C)[18F] (stereo not drawn) [e-3-[^18F]FB, Ethyl 3-[^18F]Fluorobutyrate]
stability in HCl [6]: not stable | stability in saline solution [6]: decomposed immediately

CCCCC([18F])C(=O)O (racemic) [2-[^18F]FC, 2-Fluorocaproate]
specific abdominal uptake ([3]; 45 min p.i.): not found | brain uptake ([3]; 45 min p.i.): High brain uptake; also recorded: the longest substrate absorbed by the brain | defluorination (bone uptake) ([3]; 45 min p.i.): Almost no defluorination

CC(C)([18F])C(=O)O [2-[^18F]FIB, 2-[^18F]Fluoroisobutyrate]
blood circulation time ([1]; static PET, 45 min p.i.): long circulation time | defluorination in vivo ([1]; static PET, 45 min p.i.): without defluorination | general biodistribution ([1]; static PET, 45 min p.i.): non-specificity | brain/CNS uptake ([1]; static PET, 45 min p.i., fed): marked brain uptake in contrast to their branched congener

O=C(O)CC[18F] [3-[^18F]FP, 3-[^18F]Fluoropropionate]
stability in HCl [6]: not stable | stability in saline solution [6]: decomposed immediately

Cc1[nH]nc(C(F)(F)F)c1Cc1sc2c(c1C(=O)N1C[C@](C)(O)CO1)c(=O)n(C)c(=O)n2C(C)C [AZD-3965]
Ki [7]: 3 nM | Ki [8]: 20 nM | blocking of gut uptake by AZD-3965 ([5]; co-injection with AZD-3965): selectively blocked | blocking of uptake / biodistribution by AZD-3965 [5, 10]: blocked the overall biodistribution of 2-[^18F]FP; also recorded: significant blocking of fatty acid uptake | excretion with AZD-3965 co-injection [5, 10]: almost complete excretion; also recorded: increased excretion

CC([18F])CC(=O)O (stereo not drawn) [3-[^18F]FB, 3-[^18F]Fluorobutyrate]
stability in HCl [6]: not stable | stability in saline solution [6]: decomposed immediately

CCCC([18F])C(=O)O (racemic) [2-[^18F]FV, 2-Fluorovalerate]
specific abdominal uptake ([3]; 45 min p.i.): evident | brain uptake ([3]; 45 min p.i.): High brain uptake | defluorination (bone uptake) ([3]; 45 min p.i.): small bone uptake

CCC([18F])C(=O)O (racemic) [2-[^18F]FB, 2-[^18F]Fluorobutyrate]
brain uptake ([3]; 45 min p.i.): High brain uptake | brain uptake ([3]; 45 min p.i., listed as 2-[^18F]Fluorobutyrate): peaking | brain/central nervous system (CNS) uptake [9]: the highest of the studied series | gut uptake [9]: seemingly specific gut uptake | in vivo behavior / biodistribution, comparison of isomers [9]: behaved very differently in vivo | brain uptake, fasted vs fed ([1]; fasted vs fed, 45 min p.i.): small reduction in brain uptake (not significant) | circulatory activity, fasted vs fed ([1]; fasted vs fed, 45 min p.i.): slight increase in circulatory activity | gut uptake, fasted vs fed ([1]; fasted vs fed, 45 min p.i.): modest reduction; also recorded: reduction in the aforementioned specifically located gut uptake | metabolic activity / defluorination, fasted vs fed ([1]; fasted vs fed, 45 min p.i.): reduced defluorination; also recorded: slight decrease in metabolic rate | brain/CNS uptake ([1]; static PET, 45 min p.i., fed): marked brain uptake | brain uptake with or without isoflurane anesthesia and fasting ([1]; with or without isoflurane, with or without fasting): remained unchanged with or without isoflurane anesthesia, and with or without fasting

O=C(O)CCC[18F] [4-[^18F]FB, 4-[^18F]Fluorobutyrate]
in vivo behavior / biodistribution, comparison of isomers [9]: behaved very differently in vivo | circulatory activity, fasted vs fed ([1]; fasted vs fed, 45 min p.i.): slight increase in circulatory activity | metabolic activity / defluorination, fasted vs fed ([1]; fasted vs fed, 45 min p.i.): reduced defluorination; also recorded: reduction in metabolic activity was especially noticeable; also recorded: slight decrease in metabolic rate

O=C(O)C[18F] [[^18F]FA, [^18F]Fluoroacetate]
brain uptake ([3]; 45 min p.i.): High brain uptake | blood circulation time ([1]; static PET, 45 min p.i.): decreased circulation times | brain/CNS uptake ([1]; static PET, 45 min p.i., fed): maintained CNS uptake | specific gut uptake ([1]; static PET, 45 min p.i., fed): highest uptake

CCCCCC([18F])C(=O)O (racemic) [2-[^18F]FE, 2-Fluoroenanthate]
specific abdominal uptake ([3]; 45 min p.i.): not found | brain uptake ([3]; 45 min p.i.): significantly reduced; also recorded: all brain uptake is stopped; also recorded: stops abruptly | defluorination (bone uptake) ([3]; 45 min p.i.): small bone uptake
